# From patent publication US6462047B1, “Carboline derivatives as cGMP phosphodiesterase inhibitors” (ICOS Corporation, priority 2001, dated 2002)
# pEC50, pIC50: −log10 of the molar value.
# What was measured:
# [1] = test system: conscious spontaneously hypertensive rats (SHRs); assay: Hypotensive effects in conscious spontaneously hypertensive rats; type: in vivo, rat; details: orally 5 mg/kg in 5% DMF and 95% olive oil; AUC from 0 to 5 hours of the fall in blood pressure
# Protocol: The hypotensive effects of compounds according to the invention as identified in Table 2 were studied in conscious spontaneously hypertensive rats (SHRs). The compounds were administered orally at a dose of 5 mg/kg in a mixture of 5% DMF and 95% olive oil. Blood pressure was measured from a catheter inserted in the carotid artery and recorded for five hours after administration. The results are expressed as Area Under the Curve (AUC) from 0 to 5 hours, mm Hg.hours of the fall in blood pressure over time.
# [2] = test system: Rat aortic smooth muscle cells (RSMC); assay: cGMP level measurements in ANF-stimulated rat aortic smooth muscle cells; type: cell-based; details: 30 minutes at 37° C. with compound, then ANF (100 nM) for 10 minutes, dose giving half of the stimulation at saturating concentrations
# Protocol: Rat aortic smooth muscle cells (RSMC), prepared according to Chamley et al., Cell Tissue Res., 177, 503-522 (1977), were used between the 10th and 25th passage at confluence in 24-well culture dishes. Culture media was aspirated and replaced with PBS (0.5 ml) containing the compound tested at the appropriate concentration. After 30 minutes at 37° C., particulates guanylate cyclase was stimulated by addition of ANF (100 nM) for 10 minutes. At the end of incubation, the medium was withdrawn, and two extractions were performed by addition of 65% ethanol (0.25 ml). The two ethanolic extracts were pooled and evaporated until dryness, using a Speed-vac system. cGMP was measured after acetylation by scintillation proximity immunoassay (AMERSHAM). The EC50 values are expressed as the dose-giving half of the stimulation at saturating concentrations.
# [3] = target: human recombinant PDE5 (Homo sapiens, UniProt O76074); assay: Inhibitory effect on cGMP-PDE (one-step assay adapted from Wells et al.); type: biochemical; details: human recombinant PDE5, 0.15 μM 8-[H3]-cGMP, 30 minutes incubation, 2% DMSO
# Protocol: cGMP-PDE activity of compounds of the present invention was measured using a one-step assay adapted from Wells et al., Biochim. Biophys. Acta, 384, 430 (1975). The reaction medium contained 50 mM Tris-HCl, pH 7.5, 5 mM magnesium acetate, 250 μg/ml 5′-Nucleotidase, 1 mM EGTA, and 0.15 μM 8-[H^3]-cGMP. The enzyme used was a human recombinant PDE5 (ICOS Corp., Bothell, Wash.).
# Compounds of the invention were dissolved in DMSO finally present at 2% in the assay.
Structure (SMILES),melting point,pEC50 [2],pIC50 [3],SHR AUC PO [1]
"O=C(/C=C/c1cccnc1)N1CCc2c([nH]c3ccccc23)C1c1ccc2c(c1)OCO2 (stereo not drawn) [Example 1, (E)-1-[1-(3,4-Methylenedioxyphenyl)-2,3,4,9-tetrahydro-β-carbolin-2-yl]-3-(pyridin-3-yl)-propene-1-one]",240 °C,6.30,7.24,61 mm Hg.h
"O=C(/C=C/c1ccccn1)N1CCc2c([nH]c3ccccc23)C1c1ccc2c(c1)OCO2 (stereo not drawn) [Example 2, (E)-1-[1-(3,4-Methylenedioxyphenyl)-2,3,4,9-tetrahydro-β-carbolin-2-yl]-3-(pyridin-2-yl)-propene-1-one]",135 to 141 °C,,7.12,
"O=C(/C=C/c1ccccn1)N1CCc2c([nH]c3ccccc23)C1c1ccccc1 (stereo not drawn) [Example 3, (E)-1-[1-phenyl-2,3,4,9-tetrahydro-β-carbolin-2-yl]-3-(pyridin-2-yl)-propene-1-one]",130 to 135 °C,,6.13,
O=C(/C=C/c1ccncc1)N1CCc2c([nH]c3ccccc23)C1c1ccc2c(c1)OCO2 (centres unmarked) [Example 4],224 to 225 °C,6.30,7.34,
"O=C(/C=C/c1cccnc1)N1CCc2c([nH]c3ccccc23)C1c1ccc2c(c1)CCO2 (stereo not drawn) [Example 5, (E)-1-[1-(2,3-Dihydrobenzofuran-5-yl)-2,3,4,9-tetrahydro-β-carbolin-2-yl]-3-(pyridin-3-yl)-propene-1-one]",221 to 222 °C,> 6.00,7.85,12 mm Hg.h
"CN(C)CCOc1ccc(/C=C/C(=O)N2CCc3c([nH]c4ccccc34)[C@H]2c2ccc3c(c2)CCO3)cn1 [Example 6, (E)-1R-1-[1-(2,3-Dihydrobenzofuran-5-yl)-2,3,4,9-tetrahydro-β-carbolin-2-yl]-3-[6-(2-dimethylaminoethoxy)-pyridin-3-yl]-propene-1-one]",155 °C,> 6.00,8.00,95 mm Hg.h
"CN(C)c1ccc(/C=C/C(=O)N2CCc3c([nH]c4ccccc34)[C@H]2c2ccc3c(c2)CCO3)cn1 [Example 7, (E)-(R)-1-[1-(2,3-Dihydrobenzofuran-5-yl)-2,3,4,9-tetrahydro-β-carbolin-2-yl]-3-(6-dimethylamino-pyridin-3-yl)-propene-1-one]",171 °C,> 6.00,8.22,156 mm Hg.h
"CNc1ccc(/C=C/C(=O)N2CCc3c([nH]c4ccccc34)[C@H]2c2ccc3c(c2)CCO3)cn1 [Example 8, (E)-(R)-1-[1-(2,3-Dihydrobenzofuran-5-yl)-2,3,4,9-tetrahydro-β-carbolin-2-yl]-3-(6-methylaminopyridin-3-yl)-propene-1-one]",171 °C,> 6.00,8.15,50 mm Hg.h
"CN1CCN(c2ccc(/C=C/C(=O)N3CCc4c([nH]c5ccccc45)[C@H]3c3ccc4c(c3)CCO4)cn2)CC1 [Example 9, (E)-(R)-1-[1-(2,3-Dihydrobenzofuran-5-yl)-2,3,4,9-tetrahydro-β-carbolin-2-yl]-3-[6-(4-methylpiperazin-1-yl)-pyridin-3-yl]-propene-1-one]",> 260 °C,6.00,7.60,63 mm Hg.h
"O=C(/C=C/c1ccc(N2CCCC2)nc1)N1CCc2c([nH]c3ccccc23)[C@H]1c1ccc2c(c1)CCO2 [Example 10, (E)-(R)-1-[1-(2,3-Dihydrobenzofuran-5-yl)-2,3,4,9-tetrahydro-β-carbolin-2-yl]-3-(6-pyrrolidin-1-yl-pyridin-3-yl)-propene-1-one]",201 °C,> 6.00,8.05,
"COC(=O)c1ccc(/C=C/C(=O)N2CCc3c([nH]c4ccccc34)[C@H]2c2ccc3c(c2)CCO3)nc1 [Example 11, (E)-(R)-6-{3-[1-(2,3-Dihydrobenzofuran-5-yl)-2,3,4,9-tetrahydro-β-carbolin-2-yl]-3-oxo-propenyl}-nicotinic acid methyl ester]",> 260 °C,> 6.00,7.57,
"O=C(O)c1ccc(/C=C/C(=O)N2CCc3c([nH]c4ccccc34)[C@H]2c2ccc3c(c2)CCO3)nc1 [Example 12, (E)-(R)-6-{3-[1-(2,3-Dihydrobenzofuran-5-yl)-2,3,4,9-tetrahydro-β-carbolin-2-yl]-3-oxo-propenyl}-nicotinic acid]",183 °C,5.30,8.52,
"CN(C)Cc1ccc(/C=C/C(=O)N2CCc3c([nH]c4ccccc34)[C@H]2c2ccc3c(c2)CCO3)cn1 [Example 13, (E)-(R)-1-[1-(2,3-Dihydrobenzofuran-5-yl)-2,3,4,9-tetrahydro-β-carbolin-2-yl]-3-(6-dimethylaminomethyl-pyridin-3-yl)-propene-1-one]",163 °C,> 6.00,7.52,57 mm Hg.h

# The next lines start with results.
melting point,pEC50 [2],pIC50 [3],Structure (SMILES),SHR AUC PO [1]
,5.82,8.30,"CN(C)Cc1ccc(/C=C/C(=O)N2CCc3c([nH]c4ccccc34)[C@H]2c2ccc3c(c2)CCO3)s1 [Example 14, (E)-1R-1-[1-(2,3-Dihydrobenzofuran-5-yl)-2,3,4,9-tetrahydro-β-carboline-2-yl]-3-(5-dimethylaminomethyl-thiophen-2-yl)-propene-1-one]",107 mm Hg.h
,5.82,7.40,"O=C(/C=C/c1ccc(CN2CCCC2)s1)N1CCc2c([nH]c3ccccc23)[C@H]1c1ccc2c(c1)CCO2 [Example 15, (E)-1R-1-[1-(2,3-Dihydrobenzofuran-5-yl)-2,3,4,9-tetrahydro-β-carboline-2-yl]-3-(5-pyrrolidin-1-ylmethyl-thiophen-2-yl)-propene-1-one]",96 mm Hg.h
,5.46,8.40,"CN1CCN(Cc2ccc(/C=C/C(=O)N3CCc4c([nH]c5ccccc45)[C@H]3c3ccc4c(c3)CCO4)s2)CC1 [Example 16, (E)-1R-1-[1-(2,3-Dihydrobenzofuran-5-yl)-2,3,4,9-tetrahydro-β-carboline-2-yl]-3-(4-methyl-piperazin-1-ylmethyl-thiophen-2-yl)-propene-1-one]",
,> 6.00,7.70,"CN(C)Cc1ccc(/C=C/C(=O)N2CCc3c([nH]c4ccccc34)[C@H]2c2ccc3c(c2)CCO3)o1 [Example 17, (E)-1R-1-[1-(2,3-Dihydrobenzofuran-5-yl)-2,3,4,9-tetrahydro-β-carboline-2-yl]-3-(5-dimethylaminomethyl-furan-2-yl)-propene-1-one]",40 mm Hg.h
,5.40,7.40,"CN(C)Cc1occc1/C=C/C(=O)N1CCc2c([nH]c3ccccc23)[C@H]1c1ccc2c(c1)CCO2 [Example 19, (E)-1R-1-[1-(2,3-Dihydrobenzofuran-5-yl)-2,3,4,9-tetrahydro-β-carboline-2-yl]-3-(2-dimethylaminomethyl-furan-3-yl)-propene-1-one]",
,> 6.00,7.40,"O=C(/C=C/c1cncnc1)N1CCc2c([nH]c3ccccc23)[C@H]1c1ccc2c(c1)CCO2 [Example 20, (E)-1R-1-[1-(2,3-Dihydrobenzofuran-5-yl)-2,3,4,9-tetrahydro-β-carboline-2-yl]-3-(pyrimidin-5-yl)-propene-1-one]",48 mm Hg.h
,> 6.00,8.15,"Nc1ncc(/C=C/C(=O)N2CCc3c([nH]c4ccccc34)[C@H]2c2ccc3c(c2)CCO3)cn1 [Example 21, (E)-1R-1-[1-(2,3-Dihydrobenzofuran-5-yl)-2,3,4,9-tetrahydro-β-carboline-2-yl]-3-(2-amino-5-pyrimidin-5-yl)-propene-1-one]",124 mm Hg.h
,> 6.00,8.22,O=C(/C=C/c1cnc(N2CCCC2)nc1)N1CCc2c([nH]c3ccccc23)[C@H]1c1ccc2c(c1)CCO2 [Example 22],9 mm Hg.h
,> 6.00,8.10,CN1CCN(c2ncc(/C=C/C(=O)N3CCc4c([nH]c5ccccc45)[C@H]3c3ccc4c(c3)CCO4)cn2)CC1 [Example 23],108 mm Hg.h
,> 6.00,7.40,"O=C(/C=C/c1ccc([N+](=O)[O-])s1)N1CCc2c([nH]c3ccccc23)[C@H]1c1ccc2c(c1)CCO2 [Example 26, (E)-1R-1-[1-(2,3-Dihydrobenzofuran-5-yl)-2,3,4,9-tetrahydro-β-carboline-2-yl]-3-(5-nitro-thiophen-2-yl)-propene-1-one]",
